Results from publication PMC10824666 (Nature Cancer, 2023).
Where two headings read alike, the source gives them in different places. Values belong to the molecule of their own block, whether it stands above or below them.

Experiments:
PDGFRB = PDGFRB (Homo sapiens, UniProt P09619); experiment: biochemical; parameters: Eurofins DiscoverX kinase panel, competitive binding assay at 1 uM, percent of DMSO control; conditions: competitive binding, percent of DMSO control
Procedure, shortened: (§1)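 Single-point profiling at 1 µM compound in a competition-binding format against 96 kinases, read out as POC relative to control; n = 1.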

GAK = molecular target: T1, GAK (Homo sapiens, UniProt O14976); experiment: biochemical; parameters: Eurofins DiscoverX kinase panel, competitive binding assay at 1 uM, percent of DMSO control; conditions: competitive binding, percent of DMSO control
T1 sequence (O14976 1-1311): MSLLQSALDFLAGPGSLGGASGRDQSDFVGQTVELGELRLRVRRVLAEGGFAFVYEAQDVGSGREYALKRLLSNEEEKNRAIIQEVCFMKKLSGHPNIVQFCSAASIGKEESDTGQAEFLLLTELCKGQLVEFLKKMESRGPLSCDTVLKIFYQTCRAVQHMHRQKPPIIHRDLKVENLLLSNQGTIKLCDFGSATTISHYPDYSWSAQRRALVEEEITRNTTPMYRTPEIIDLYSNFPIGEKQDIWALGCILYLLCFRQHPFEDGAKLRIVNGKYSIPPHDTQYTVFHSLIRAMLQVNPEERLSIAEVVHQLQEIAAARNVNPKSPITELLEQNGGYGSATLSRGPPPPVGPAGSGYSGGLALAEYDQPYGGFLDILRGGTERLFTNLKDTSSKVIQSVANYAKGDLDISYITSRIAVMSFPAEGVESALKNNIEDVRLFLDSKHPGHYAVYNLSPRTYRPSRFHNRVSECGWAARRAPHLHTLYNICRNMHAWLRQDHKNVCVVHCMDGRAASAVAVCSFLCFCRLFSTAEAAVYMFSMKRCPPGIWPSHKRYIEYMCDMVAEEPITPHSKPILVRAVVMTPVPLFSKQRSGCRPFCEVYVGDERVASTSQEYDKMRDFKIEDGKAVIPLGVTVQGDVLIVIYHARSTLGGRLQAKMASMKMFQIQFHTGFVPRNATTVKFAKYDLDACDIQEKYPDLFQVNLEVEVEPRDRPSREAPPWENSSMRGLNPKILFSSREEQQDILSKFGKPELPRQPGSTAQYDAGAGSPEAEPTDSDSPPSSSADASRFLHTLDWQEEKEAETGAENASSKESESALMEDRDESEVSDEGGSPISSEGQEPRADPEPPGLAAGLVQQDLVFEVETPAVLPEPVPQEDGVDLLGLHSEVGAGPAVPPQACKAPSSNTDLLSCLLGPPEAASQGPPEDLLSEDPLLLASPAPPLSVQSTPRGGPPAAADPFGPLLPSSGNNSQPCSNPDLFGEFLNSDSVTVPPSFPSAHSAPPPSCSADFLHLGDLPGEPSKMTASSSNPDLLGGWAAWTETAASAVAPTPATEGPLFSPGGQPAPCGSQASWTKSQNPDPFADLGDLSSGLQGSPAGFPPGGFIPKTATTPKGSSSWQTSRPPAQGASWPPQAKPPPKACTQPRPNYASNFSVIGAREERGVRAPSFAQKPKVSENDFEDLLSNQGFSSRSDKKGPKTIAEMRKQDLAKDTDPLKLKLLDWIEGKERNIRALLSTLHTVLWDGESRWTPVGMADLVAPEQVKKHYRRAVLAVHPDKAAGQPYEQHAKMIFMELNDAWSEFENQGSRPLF
Procedure, shortened: as §1

[1] = read-out: Kinome Profiling performed by Eurofins DiscoverX / AM-1882, 1.0 µM / POC
[2] = read-out: Kinome Profiling performed by Eurofins DiscoverX / AM-5308, 1.0 µM / POC
[3] = read-out: Kinome Profiling performed by Eurofins DiscoverX / AM-0277, 1.0 µM / POC

Sequence of PDGFRB (P09619 whole entry): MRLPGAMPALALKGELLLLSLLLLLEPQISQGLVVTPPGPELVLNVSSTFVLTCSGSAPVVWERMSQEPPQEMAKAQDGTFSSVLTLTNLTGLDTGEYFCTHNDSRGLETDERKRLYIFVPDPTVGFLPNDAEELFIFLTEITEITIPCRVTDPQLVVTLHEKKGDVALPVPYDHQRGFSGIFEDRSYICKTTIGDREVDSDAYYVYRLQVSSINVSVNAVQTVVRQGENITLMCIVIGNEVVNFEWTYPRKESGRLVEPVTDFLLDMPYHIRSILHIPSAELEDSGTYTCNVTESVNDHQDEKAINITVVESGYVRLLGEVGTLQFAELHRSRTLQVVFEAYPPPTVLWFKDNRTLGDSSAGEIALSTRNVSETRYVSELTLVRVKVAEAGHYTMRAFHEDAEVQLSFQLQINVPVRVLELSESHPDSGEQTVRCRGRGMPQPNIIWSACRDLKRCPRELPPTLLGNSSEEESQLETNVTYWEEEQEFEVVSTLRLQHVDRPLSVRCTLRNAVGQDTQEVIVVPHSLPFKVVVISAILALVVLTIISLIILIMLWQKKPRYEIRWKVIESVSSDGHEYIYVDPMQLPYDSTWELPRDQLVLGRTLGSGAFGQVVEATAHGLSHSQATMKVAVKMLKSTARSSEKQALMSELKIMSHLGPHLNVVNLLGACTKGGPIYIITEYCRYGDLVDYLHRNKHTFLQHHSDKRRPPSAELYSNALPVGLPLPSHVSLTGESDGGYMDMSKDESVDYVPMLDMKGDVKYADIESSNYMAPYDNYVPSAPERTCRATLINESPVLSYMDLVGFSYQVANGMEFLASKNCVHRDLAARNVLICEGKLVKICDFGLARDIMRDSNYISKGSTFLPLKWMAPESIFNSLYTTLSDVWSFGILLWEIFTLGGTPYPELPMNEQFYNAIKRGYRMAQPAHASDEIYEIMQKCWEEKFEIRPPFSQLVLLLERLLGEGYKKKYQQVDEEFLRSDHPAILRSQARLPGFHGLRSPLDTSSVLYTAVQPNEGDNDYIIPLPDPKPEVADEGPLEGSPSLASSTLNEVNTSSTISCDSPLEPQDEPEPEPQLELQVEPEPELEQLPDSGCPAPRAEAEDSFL

remaining activity at 1 µM (PDGFRB; [1]): 98%
remaining activity at 1 µM (GAK; [1]): 99.5%
SMILES: CC(C)(C)NS(=O)(=O)c1cccc(NC(=O)c2ccc(S(=O)(=O)NC(C)(C)C)cc2N2CCC3(CC2)CC3)c1 [AM-1882]

remaining activity at 1 µM (PDGFRB; [2]): 97.5%
remaining activity at 1 µM (GAK; [2]): 86%
SMILES: C[C@@H]1CN(c2cccc(NC(=O)c3ccc(NS(=O)(=O)CCO)cc3N3CCC4(CC3)CC4)n2)CCO1 [AM-5308]

remaining activity at 1 µM (PDGFRB; [3]): 94%
remaining activity at 1 µM (GAK; [3]): 100%
SMILES: CC(C)(CO)Nc1ccc(C(=O)Nc2cccc(S(=O)(=O)C3CCCC3)c2)c(N2CCC3(CC2)CC3)n1 [AM-0277]
